Source: patent US12673961B2 (Agios Pharmaceuticals, Inc., priority 2022, dated 2026)
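Note: Ten-point dose curve from 2-fold serial dilutions, run in duplicate at 0.5% DMSO final, tracer step used 20 µM sepiapterin and 800 µM labeled phenylalanine.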

These compounds were tested against T1, human PAH with the R408W mutation (Homo sapiens, UniProt P00439, R408W) (assay: Cell Based Phenylalanine Flux Assay). Settings: A375 cells expressing human R408W PAH; 24 hrs with compound, then sepiapterin and 13C9,15N-Phenylalanine for 4 hours; 13C-Tyrosine by LC-MS; average where tested multiple times; read-out: AC50.
T1 construct: expressed in transfected cells
T1 sequence (P00439 1-452 R408W): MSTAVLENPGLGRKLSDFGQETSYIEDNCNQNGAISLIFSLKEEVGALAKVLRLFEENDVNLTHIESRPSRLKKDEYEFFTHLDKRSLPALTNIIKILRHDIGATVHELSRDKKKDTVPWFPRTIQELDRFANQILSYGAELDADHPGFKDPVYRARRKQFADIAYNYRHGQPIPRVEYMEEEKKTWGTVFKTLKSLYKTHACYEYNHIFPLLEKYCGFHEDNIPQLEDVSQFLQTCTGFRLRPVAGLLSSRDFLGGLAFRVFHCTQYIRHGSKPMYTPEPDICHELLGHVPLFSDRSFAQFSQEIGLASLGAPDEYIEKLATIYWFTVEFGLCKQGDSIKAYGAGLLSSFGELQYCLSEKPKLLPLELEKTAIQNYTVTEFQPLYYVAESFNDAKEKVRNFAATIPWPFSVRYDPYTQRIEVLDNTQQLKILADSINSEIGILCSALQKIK
`FC(F)(F)c1cccn2nc([C@@H]3c4nc[nH]c4CCN3c3nnc(C4CC4)o3)cc12` [Example 1591, (S)-2-cyclopropyl-5-(4-(4-(trifluoromethyl)pyrazolo[1,5-a]pyridin-2-yl)-6,7-dihydro-1H-imidazo[4,5-c]pyridin-5(4H)-yl)-1,3,4-oxadiazole] gave an AC50 of 500 to 1000 nM. `c1cnc(N2CCc3[nH]cnc3[C@H]2c2cc3ccccn3n2)nc1` [Example 1592, (S)-4-(pyrazolo[1,5-a]pyridin-2-yl)-5-(pyrimidin-2-yl)-4,5,6,7-tetrahydro-1H-imidazo[4,5-c]pyridine] showed an AC50 of 500 to 1000 nM. With `Clc1cccn2nc([C@H]3c4nc[nH]c4CCN3c3nnc(-c4ccccn4)o3)cc12` [Example 1622, (R)-2-(4-(4-chloropyrazolo [1,5-a]pyridin-2-yl)-6,7-dihydro-1H-imidazo[4,5-c]pyridin-5(4H)-yl)-5-(pyridin-2-yl)-1,3,4-oxadiazole] the AC50 was 1000 to 5000 nM. For `FC(F)c1cccc2cc([C@H]3c4nc[nH]c4CCN3c3nnc(-c4ccccn4)o3)nn12` [Example 1627, (R)-2-(4-(7-(difluoromethyl)pyrazolo[1,5-a]pyridin-2-yl)-6,7-dihydro-1H-imidazo [4,5-c]pyridin-5(4H)-yl)-5-(pyridin-2-yl)-1,3,4-oxadiazole], the AC50 was over 5000 nM. Compound `COCc1ccc2c(C(=O)N3CCc4[nH]cnc4[C@H]3c3cc4c(F)cccn4n3)cnn2c1` [Example 1628, (4-(4-fluoropyrazolo[1,5-a]pyridin-2-yl)-6,7-dihydro-1H-imidazo[4,5-c]pyridin-5(4H)-yl)(6-(methoxymethyl)pyrazolo[1,5-a]pyridin-3-yl)methanone] has an AC50 of 500 to 1000 nM. `Clc1cccc2cc([C@@H]3c4nc[nH]c4CCN3c3nnc(-c4ccccn4)o3)nn12` [Example 1639, (S)-2-(4-(7-chloropyrazolo [1,5-a]pyridin-2-yl)-6,7-dihydro-1H-imidazo[4,5-c]pyridin-5(4H)-yl)-5-(pyridin-2-yl)-1,3,4-oxadiazole] was tested, and the AC50 was 500 to 1000 nM. Work on `Cc1cccc2cc([C@H]3c4nc[nH]c4CCN3c3nnc(-c4ccccn4)o3)nn12` [Example 1641, (R)-2-(4-(7-methylpyrazolo [1,5-a]pyridin-2-yl)-6,7-dihydro-1H-imidazo[4,5-c]pyridin-5(4H)-yl)-5-(pyridin-2-yl)-1,3,4-oxadiazole] yielded an AC50 of over 5000 nM. Compound `COCc1ccc2c(C(=O)N3CCc4[nH]cnc4[C@H]3c3cc4c(Cl)cccn4n3)cnn2c1` [Example 1650, (S)-(4-(4-chloropyrazolo [1,5-a]pyridin-2-yl)-6,7-dihydro-1H-imidazo [4,5-c]pyridin-5(4H)-yl)(6-(methoxymethyl)pyrazolo [1,5-a]pyridin-3-yl)methanone] has an AC50 of 500 to 1000 nM. `Cc1ccc2c(C(=O)N3CCc4[nH]cnc4[C@H]3c3cc4c(C(F)(F)F)cccn4n3)cnn2c1` [Example 1666, (S)-(6-methylpyrazolo [1,5-a]pyridin-3-yl)(4-(4-(trifluoromethyl)pyrazolo [1,5-a]pyridin-2-yl)-6,7-dihydro-1H-imidazo[4,5-c]pyridin-5(4H)-yl)methanone] showed an AC50 of 500 to 1000 nM. In the case of `Cc1ccc2c(C(=O)N3CCc4[nH]cnc4[C@H]3c3cc4c(C)cccn4n3)cnn2c1` [Example 1668, (S)-(4-(4-methylpyrazolo [1,5-a]pyridin-2-yl)-6,7-dihydro-1H-imidazo [4,5-c]pyridin-5(4H)-yl)(6-methylpyrazolo[1,5-a]pyridin-3-yl)methanone], the AC50 is reported as 500 to 1000 nM. Work on `O=C(c1cnn2cc(C3CC3)ccc12)N1CCc2[nH]cnc2[C@@H]1c1cc2c(F)cccn2n1` [Example 1673, (R)-(6-cyclopropylpyrazolo [1,5-a]pyridin-3-yl)(4-(4-fluoropyrazolo[1,5-a]pyridin-2-yl)-6,7-dihydro-1H-imidazo[4,5-c]pyridin-5(4H)-yl)methanone] yielded an AC50 of over 5000 nM. `Cc1c(-c2nnc(C(=O)N3CCc4[nH]cnc4[C@H]3c3cc4c(OC(F)(F)F)cccn4n3)o2)cnn1C` [Example 1684, (S)-(5-(1,5-dimethyl-1H-pyrazol-4-yl)-1,3,4-oxadiazol-2-yl)-(4-(4-(trifluoromethoxy)pyrazolo[1,5-a]pyridin-2-yl)-6,7-dihydro-1H-imidazo [4,5-c]pyridin-5(4H)-yl)methanone] showed an AC50 of under 500 nM. `FC(F)(F)c1cccn2nc([C@H]3c4nc[nH]c4CCN3c3ncccn3)cc12` [Example 1693, (R)-5-(pyrimidin-2-yl)-4-(4-(trifluoromethyl)pyrazolo [1,5-a]pyridin-2-yl)-4,5,6,7-tetrahydro-1H-imidazo [4,5-c]pyridine] showed an AC50 of 1000 to 5000 nM. Compound `Cc1ccc2c(C(=O)N3CCc4[nH]cnc4[C@H]3c3cc4c(C(F)F)cccn4n3)cnn2c1` [Example 1712, (S)-(4-(4-(difluoromethyl)pyrazolo[1,5-a]pyridin-2-yl)-6,7-dihydro-1H-imidazo [4,5-c]pyridin-5(4H)-yl)(6-methylpyrazolo[1,5-a]pyridin-3-yl)methanone] has an AC50 of 500 to 1000 nM. Compound `O=C(c1cnn2cc(C3CC3)ccc12)N1CCc2[nH]cnc2[C@@H]1c1cc2c(C(F)(F)F)cccn2n1` [Example 1717, (R)-(6-cyclopropylpyrazolo [1,5-a]pyridin-3-yl)(4-(4-(trifluoromethyl)pyrazolo [1,5-a]pyridin-2-yl)-6,7-dihydro-1H-imidazo[4,5-c]pyridin-5(4H)-yl)methanone] has an AC50 of over 5000 nM. `O=C(c1nnc(C2CC2)o1)N1CCc2[nH]cnc2[C@H]1c1cc2c(OC(F)(F)F)cccn2n1` [Example 1724, (S)-(5-cyclopropyl-1,3,4-oxadiazol-2-yl)(4-(4-(trifluoromethoxy)pyrazolo [1,5-a]pyridin-2-yl)-6,7-dihydro-1H-imidazo[4,5-c]pyridin-5(4H)-yl)methanone] gave an AC50 of under 500 nM. Work on `CN(C)c1ccc2c(C(=O)N3CCc4[nH]cnc4[C@H]3c3cc4c(C(F)(F)F)cccn4n3)cnn2c1` [Example 1746, (S)-(6-(dimethylamino)pyrazolo[1,5-a]pyridin-3-yl)(4-(4-(trifluoromethyl)pyrazolo [1,5-a]pyridin-2-yl)-6,7-dihydro-1H-imidazo[4,5-c]pyridin-5(4H)-yl)methanone] yielded an AC50 of under 500 nM. `COc1cccn2nc([C@@H]3c4nc[nH]c4CCN3C(=O)c3cnn4cc(-c5ccn(C)n5)ccc34)cc12` [Example 1748, (S)-(4-(4-methoxypyrazolo [1,5-a]pyridin-2-yl)-6,7-dihydro-1H-imidazo[4,5-c]pyridin-5(4H)-yl)(6-(1-methyl-1H-pyrazol-3-yl)pyrazolo[1,5-a]pyridin-3-yl)methanone] gave an AC50 of 500 to 1000 nM. `FC(F)c1cccn2nc([C@H]3c4nc[nH]c4CCN3c3nnc(C(F)(F)F)o3)cc12` [Example 1766, (R)-2-(4-(4-(difluoromethyl)pyrazolo[1,5-a]pyridin-2-yl)-6,7-dihydro-1H-imidazo [4,5-c]pyridin-5(4H)-yl)-5-(trifluoromethyl)-1,3,4-oxadiazole] showed an AC50 of 500 to 1000 nM. Work on `CN(C)c1ccc2c(C(=O)N3CCc4[nH]cnc4[C@H]3c3cc4c(F)cccn4n3)cnn2c1` [Example 1772, (S)-(6-(dimethylamino)pyrazolo[1,5-a]pyridin-3-yl)(4-(4-fluoropyrazolo[1,5-a]pyridin-2-yl)-6,7-dihydro-1H-imidazo[4,5-c]pyridin-5(4H)-yl)methanone] yielded an AC50 of 500 to 1000 nM. For `Fc1cccn2nc([C@@H]3c4nc[nH]c4CCN3c3ncc(C(F)(F)F)cn3)cc12` [Example 1778, (S)-4-(4-fluoropyrazolo [1,5-a]pyridin-2-yl)-5-(5-(trifluoromethyl)pyrimidin-2-yl)-4,5,6,7-tetrahydro-1H-imidazo[4,5-c]pyridine], the AC50 was under 500 nM. For `Cc1cccc2cc([C@@H]3c4nc[nH]c4CCN3c3ncc(C(F)(F)F)cn3)nn12` [Example 1802, (S)-4-(7-methylpyrazolo [1,5-a]pyridin-2-yl)-5-(5-(trifluoromethyl)pyrimidin-2-yl)-4,5,6,7-tetrahydro-1H-imidazo[4,5-c]pyridine], the AC50 was 500 to 1000 nM. Work on `Fc1cccn2nc([C@H]3c4nc[nH]c4CCN3c3nnc(C(F)(F)F)o3)cc12` [Example 1822, (R)-2-(4-(4-fluoropyrazolo [1,5-a]pyridin-2-yl)-6,7-dihydro-1H-imidazo [4,5-c]pyridin-5(4H)-yl)-5-(trifluoromethyl)-1,3,4-oxadiazole] yielded an AC50 of over 5000 nM. Work on `Fc1cccn2nc([C@@H]3c4nc[nH]c4CCN3c3nnc(C(F)(F)F)o3)cc12` [Example 1823] yielded an AC50 of 500 to 1000 nM. `O=C(c1nnc(-c2cnccn2)o1)N1CCc2[nH]cnc2[C@H]1c1cc2c(C3CC3)cccn2n1` [Example 1857, (S)-(4-(4-cyclopropylpyrazolo [1,5-a]pyridin-2-yl)-1,4,6,7-tetrahydro-5H-imidazo[4,5-c]pyridin-5-yl)(5-(pyrazin-2-yl)-1,3,4-oxadiazol-2-yl)methanone] gave an AC50 of 500 to 1000 nM. `Fc1cccc(F)c1-c1nnc(N2CCc3[nH]cnc3[C@H]2c2cc3c(F)cccn3n2)o1` [Example 1865, (S)-2-(2,6-difluorophenyl)-5-(4-(4-fluoropyrazolo[1,5-a]pyridin-2-yl)-1,4,6,7-tetrahydro-5H-imidazo[4,5-c]pyridin-5-yl)-1,3,4-oxadiazole] gave an AC50 of under 500 nM. For `CC(C)(C)c1ncc(C(=O)N2CCc3[nH]cnc3[C@H]2c2cc3ccccn3n2)o1` [Example 1866, (S)-(2-(tert-butyl)oxazol-5-yl)(4-(pyrazolo[1,5-a]pyridin-2-yl)-1,4,6,7-tetrahydro-5H-imidazo[4,5-c]pyridin-5-yl)methanone], the AC50 was under 500 nM.
